Assay results published in ChEMBL document CHEMBL4742387, “Condensed tricyclic compounds as protein kinase inhibitors” (2018).

Experiments:
MV4-11 = assay: Antiproliferative activity against human MV4-11 cells assessed as reduction in cell proliferation by CellTiter-Glo luminescent cell viability assay; format: functional; settings: Homo sapiens, MV4-11
MDA-MB-231 = assay: Antiproliferative activity against human MDA-MB-231 cells assessed as reduction in cell proliferation by CellTiter-Glo luminescent cell viability assay; format: functional
SW-620 = assay: Antiproliferative activity against human SW-620 cells assessed as reduction in cell proliferation by CellTiter-Glo luminescent cell viability assay; format: functional
MOLM-13 = assay: Antiproliferative activity against human MOLM-13 cells assessed as reduction in cell proliferation by CellTiter-Glo luminescent cell viability assay; format: functional; settings: Homo sapiens, MOLM-13
CDK8/Cyclin C = CDK8/Cyclin C (Homo sapiens, UniProt P49336); assay: Inhibition of kinase tracer 236 binding to full-length His-tagged recombinant human CDK8/cyclin C incubated for 60 mins by FRET based LanthaScreen Eu-Kinase binding assay; format: protein-complex assay
[1] = target: Cyclin-C/Cyclin-dependent kinase 19 (Homo sapiens, UniProt Q9BWU1); assay: Inhibition of kinase tracer 236 binding to full-length His-tagged recombinant human CDK19/cyclin C incubated for 60 mins by FRET based LanthaScreen Eu-Kinase binding assay; format: protein-complex assay
[2] = target: T1, Cyclin-dependent kinase 8 (Homo sapiens, UniProt P49336); assay: Inhibition of CDK8 in human SW-620 cells assessed as reduction in IFNgamma-induced STAT1 S727 phosphorylation pre-incubated for 1 hr before IFNgamma stimulation for 3 hrs by Western blot analysis; format: cell-based; settings: time 4.0 hrs
[3] = target: T2, Serine/threonine-protein kinase haspin (Homo sapiens) (UniProt Q8TF76); assay: Inhibition of haspin in synchronized human SW620 cells assessed as reduction in IFNgamma-induced H3T3 phosphorylation pre-incubated for 1 hr before IFNgamma stimulation for 3 hrs by Western blot analysis; format: cell-based; settings: SW-620, time 4.0 hrs
T2 sequence (whole entry): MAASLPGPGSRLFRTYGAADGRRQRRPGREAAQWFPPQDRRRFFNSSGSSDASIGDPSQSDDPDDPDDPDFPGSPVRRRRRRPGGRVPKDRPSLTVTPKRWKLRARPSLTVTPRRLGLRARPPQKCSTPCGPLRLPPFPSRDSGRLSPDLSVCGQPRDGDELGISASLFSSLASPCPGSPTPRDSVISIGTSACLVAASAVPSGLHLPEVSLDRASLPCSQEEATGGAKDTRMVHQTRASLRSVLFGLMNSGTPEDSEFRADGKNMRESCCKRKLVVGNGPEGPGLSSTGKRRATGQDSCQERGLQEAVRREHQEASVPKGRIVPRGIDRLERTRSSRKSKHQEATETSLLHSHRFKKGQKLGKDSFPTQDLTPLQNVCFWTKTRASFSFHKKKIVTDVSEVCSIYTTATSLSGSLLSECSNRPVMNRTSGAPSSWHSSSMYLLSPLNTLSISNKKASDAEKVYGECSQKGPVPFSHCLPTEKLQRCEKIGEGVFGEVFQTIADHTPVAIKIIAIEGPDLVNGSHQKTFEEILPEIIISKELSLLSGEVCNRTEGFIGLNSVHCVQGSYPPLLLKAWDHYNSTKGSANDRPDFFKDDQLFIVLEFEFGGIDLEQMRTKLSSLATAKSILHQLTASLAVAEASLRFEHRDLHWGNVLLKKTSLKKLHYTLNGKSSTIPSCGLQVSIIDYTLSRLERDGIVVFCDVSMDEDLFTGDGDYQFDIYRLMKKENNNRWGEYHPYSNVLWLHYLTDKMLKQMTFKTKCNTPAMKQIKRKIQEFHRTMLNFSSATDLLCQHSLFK

[4] = target: T1, Cyclin-dependent kinase 8; assay: Inhibition of CDK8 in human SW-620 cells assessed as reduction in STAT1 S727 phosphorylation pre-incubated for 1 hr before IFNgamma stimulation for 3 hrs by Western blot analysis; format: cell-based; settings: time 4.0 hrs
[5] = target: T2, Serine/threonine-protein kinase haspin (Homo sapiens); assay: Inhibition of haspin in human SW620 cells assessed as reduction in IFNgamma-induced H3T3 phosphorylation pre-incubated for 1 hr before IFNgamma stimulation for 3 hrs by Western blot analysis; format: cell-based; settings: SW-620, time 4.0 hrs
[6] = target: T3, Serine/threonine-protein kinase haspin (Homo sapiens, UniProt Q8TF76); assay: Inhibition of GST-tagged recombinant human haspin kinase domain incubated for 60 mins by ADP-Glo luminescent kinase assay
T3 sequence (Q8TF76 whole entry): T2 sequence (whole entry)

BXPC-3 = assay: Antiproliferative activity against human BXPC-3 cells assessed as reduction in cell proliferation by CellTiter-Glo luminescent cell viability assay; format: functional
SK-MEL19 = assay: Antiproliferative activity against human SK-MEL19 cells assessed as reduction in cell proliferation by CellTiter-Glo luminescent cell viability assay; format: functional
A549 = assay: Antiproliferative activity against human A549 cells assessed as reduction in cell proliferation by CellTiter-Glo luminescent cell viability assay; format: functional
DU-145 = assay: Antiproliferative activity against human DU-145 cells assessed as reduction in cell proliferation by CellTiter-Glo luminescent cell viability assay; format: functional
HCT-116 = assay: Antiproliferative activity against human HCT-116 cells assessed as reduction in cell proliferation by CellTiter-Glo luminescent cell viability assay; format: functional

T1 sequence (P49336 whole entry): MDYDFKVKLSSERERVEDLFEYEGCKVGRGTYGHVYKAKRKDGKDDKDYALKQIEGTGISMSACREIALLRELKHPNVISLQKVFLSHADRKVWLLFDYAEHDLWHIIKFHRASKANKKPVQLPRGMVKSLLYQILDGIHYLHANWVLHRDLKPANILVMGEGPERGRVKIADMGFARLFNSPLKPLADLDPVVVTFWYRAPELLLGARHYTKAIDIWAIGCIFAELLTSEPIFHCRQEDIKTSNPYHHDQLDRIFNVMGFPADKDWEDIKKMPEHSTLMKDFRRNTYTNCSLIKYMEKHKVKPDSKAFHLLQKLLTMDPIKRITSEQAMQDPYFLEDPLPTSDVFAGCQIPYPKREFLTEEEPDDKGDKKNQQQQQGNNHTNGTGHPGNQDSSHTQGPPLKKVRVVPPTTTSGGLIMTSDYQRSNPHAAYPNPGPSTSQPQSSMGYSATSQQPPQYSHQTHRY
Sequence of CDK8/Cyclin C (P49336 whole entry): as above
Sequence of CDK8/Cyclin C (P24863 whole entry, further chain): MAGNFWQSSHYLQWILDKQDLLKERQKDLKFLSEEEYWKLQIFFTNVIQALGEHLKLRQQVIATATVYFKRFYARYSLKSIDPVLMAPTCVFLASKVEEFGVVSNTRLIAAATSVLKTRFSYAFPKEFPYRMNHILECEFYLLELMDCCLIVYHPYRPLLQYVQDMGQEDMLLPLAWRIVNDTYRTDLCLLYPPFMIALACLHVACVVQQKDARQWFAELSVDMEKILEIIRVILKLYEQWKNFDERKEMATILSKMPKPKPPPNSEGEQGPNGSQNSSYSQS
Sequence of Cyclin-C/Cyclin-dependent kinase 19 (Q9BWU1 whole entry): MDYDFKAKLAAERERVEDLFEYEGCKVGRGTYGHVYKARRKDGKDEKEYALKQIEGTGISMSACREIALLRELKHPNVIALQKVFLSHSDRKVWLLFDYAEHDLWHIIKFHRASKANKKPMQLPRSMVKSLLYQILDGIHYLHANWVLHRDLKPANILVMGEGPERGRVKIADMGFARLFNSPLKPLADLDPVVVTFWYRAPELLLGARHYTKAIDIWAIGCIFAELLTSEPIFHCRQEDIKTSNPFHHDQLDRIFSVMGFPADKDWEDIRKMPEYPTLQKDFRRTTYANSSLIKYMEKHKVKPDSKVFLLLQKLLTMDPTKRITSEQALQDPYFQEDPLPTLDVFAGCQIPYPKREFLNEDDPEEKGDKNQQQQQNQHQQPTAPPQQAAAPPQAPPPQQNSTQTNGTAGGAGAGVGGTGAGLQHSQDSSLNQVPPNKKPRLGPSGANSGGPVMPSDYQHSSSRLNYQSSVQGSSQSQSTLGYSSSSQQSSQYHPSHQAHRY
Sequence of Cyclin-C/Cyclin-dependent kinase 19 (P24863 whole entry, further chain): as the sequence (P24863 whole entry, further chain) above

SMILES	GI50 (MV4-11) [nM]	GI50 (MDA-MB-231; Homo sapiens, MDA-MB-231) [nM]	GI50 (SW-620; Homo sapiens, SW-620) [nM]	GI50 (MOLM-13) [nM]	INH [4] [nM]	also measured
CCn1c(C(N)=O)cc2c1-c1ccncc1OC21CCCCC1	< 1000	1000	1000	< 1000	–	–
Cn1c(C(N)=O)cc2c1-c1ccncc1OC21CCOCC1	< 1000	1000	1000	< 1000	–	–
NC(=O)c1cc2c([nH]1)-c1ccncc1O[C@H]2C1CCCCC1	< 1000	10000	1000	1000	< 500	IC50 (CDK8/Cyclin C): 8.5 nM; IC50 [1]: 7.14 nM; INH [2]: < 500 nM; INH [3]: < 500 nM; INH [5]: < 500 nM
NC(=O)c1cc2c([nH]1)-c1ccncc1OC21CCC1	< 1000	1000	10000	< 1000	< 500	–
CCn1c(C(N)=O)cc2c1-c1ccncc1OC2C1CCOCC1 (stereo not drawn)	–	–	–	–	–	IC50 (CDK8/Cyclin C): < 1.41 nM; IC50 [6]: 355 nM
CCn1c(C(N)=O)cc2c1-c1ccncc1OC21CCOCC1	< 1000	1000	1000	< 1000	< 500	INH [5]: < 500 nM
NC(=O)c1cc2c([nH]1)-c1ccncc1OC2C1CCOCC1 (stereo in doubt; form 2)	–	–	–	–	–	INH [2]: < 500 nM; INH [3]: 500 nM
CN(NC(=O)CC(=O)NN(C)C(=S)c1ccccc1)C(=S)c1ccccc1 [ELESCLOMOL]	–	250	250	–	–	GI50 (BXPC-3): 62 nM; GI50 (SK-MEL19): 250 nM; GI50 (A549): 250 nM
CCn1c(C(N)=O)c(-c2cccc(OC)c2)c2c1-c1ccncc1OC2(C)C	< 1000	10000	10000	1000	–	–
C[C@@H](Oc1cc(-c2cnn(C3CCNCC3)c2)cnc1N)c1c(Cl)ccc(F)c1Cl [CRIZOTINIB]	–	–	1000	–	–	GI50 (BXPC-3): 5000 nM; GI50 (DU-145): 20000 nM; GI50 (SK-MEL19): 5000 nM; GI50 (HCT-116): 5000 nM
CCn1c(C(N)=O)cc2c1-c1ccncc1OC21CCN(CC(F)(F)F)CC1	< 1000	1000	1000	< 1000	< 500	INH [5]: < 500 nM
CC1(C)Oc2cnccc2-c2[nH]c(C(N)=O)c(C3CC3)c21	< 1000	1000	1000	1000	< 500	–
COc1cc(Nc2ncc3c(n2)-c2ccc(Cl)cc2C(c2c(F)cccc2OC)=NC3)ccc1C(=O)O [ALISERTIB]	–	–	500	–	–	GI50 (DU-145): 12500 nM; GI50 (HCT-116): 12500 nM
NC(=O)c1cc2c(n1CCF)-c1ccncc1OC21CCOCC1	–	–	–	–	–	IC50 (CDK8/Cyclin C): < 1.41 nM
CC1(C)Oc2cnccc2-c2[nH]c(C(N)=O)cc21	1000	10000	–	–	–	–
NC(=O)c1cc2c([nH]1)-c1ccncc1OC2C1CCCCC1 (stereo not drawn)	< 1000	1000	< 1000	< 1000	–	IC50 (CDK8/Cyclin C): 19.3 nM; IC50 [1]: 87.3 nM; INH [2]: < 500 nM; INH [3]: 500 nM
CC1(C)Oc2cnccc2-c2c1cc(C(N)=O)n2CCF	< 1000	1000	1000	< 1000	< 500	INH [2]: < 500 nM; INH [3]: < 500 nM; INH [5]: < 500 nM
NC(=O)c1cc2c([nH]1)-c1ccncc1OC2C1CCOCC1 (stereo in doubt; form 1)	< 1000	–	–	1000	–	IC50 (CDK8/Cyclin C): 281 nM; IC50 [6]: 5760 nM; GI50 (MDA-MB-231): 1000 nM; GI50 (SW-620): 1000 nM
COCCn1c(C(N)=O)cc2c1-c1ccncc1OC2(C)C	–	–	–	–	–	INH [2]: < 500 nM; INH [3]: < 500 nM
